How the values were obtained:
[1] = type: physicochemical; details: for Dye Concentration in Acetone at RT: 72 h
Description: Examples 3-4 and Comparative Example A were prepared by placing 60-100 mg of each of the compounds of Examples 1-2 and 6-methoxy-14H-anthra(2,1,9-mna)thioxanthene-14-one (described by […] et al.) in a vial with 5.0 ml acetone. […] Each vial was hand shaken and the solution was filtered using a 0.45 micron polytetrafluoroethylene (PTFE) filter commercially available from VWR Scientific Products, West Chester, Pa. under the trade designation “Acrodisc 13CR PTFE”. The amount of fluorescent dye in the saturated acetone solution was determined by measuring the major dye absorption band at 535 nm using a UV-Vis Spectrophotometer commercially available from Shimadzu Scientific Instruments, Inc., Columbia, Md. under the trade designation “Shimadzu model UV-2401PC”. Dye concentrations were calculated by measuring the absorbance of the saturated acetone solution, and then diluting that solution until absorbance of the resulting solution was below 3. The dyes were assumed to have equal absorbance per mole. Using the dilution and an absorbance coefficient of 16,100 A/mol/L (coefficient obtained in acetone for the dye of Example 2) and assuming a Beer's Law relationship, the concentration of dye in each saturated solution was calculated and is set out in TABLE I.

Compound	Dye Concentration in Acetone at RT [1] [mg/mL]	melting point [°C]	solubility in acetone relative to Comparative Example A [1]
COc1cc2c3ccccc3c(=O)c3ccc4c5ccccc5sc1c4c32 [A, 6-methoxy-14H-anthra(2,1,9-mna)thioxanthene-14-one, reference compound]	0.06		
CCCCC(CC)COc1cc2c3ccccc3c(=O)c3ccc4c5ccccc5sc1c4c32 (stereo not drawn) [Example 1, 6-[(2-Ethylhexyl)oxy]-14H-anthra[2,1,9-mna]thioxanthene-14-one]	0.96	175 to 177	improved solubility
CC(C)CC(CC(C)C)Oc1cc2c3ccccc3c(=O)c3ccc4c5ccccc5sc1c4c32 [Example 2, 6-(1-Isobutyl-3-methylbutoxy)-14H-anthra[2,1,9-mna]thioxanthene-14-one]	2.98		improved solubility
